Results reported in ChEMBL document CHEMBL1201862, “PubChem BioAssay data set” (2004).
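Five compound concentrations were applied to cells in 96-well plates for 48 hours; endpoints were derived by simple linear interpolation of the resulting dose-response curve. GI50 marks 50% less growth.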 Calls of active or inactive are those of the source. No stated cut-off is given here; in the data, active = GI50 up to about 1.1 µM and inactive = higher.

Assays:
Experiment in all cases: NCI-60 cell line screen, 48 h
IGROV-1 = system: IGROV-1
HT-29 = system: HT-29
HL-60 = system: HL-60
KM-20L2 = system: KM-20L2
MOLT-4 = system: MOLT-4
SNB-78 = system: SNB-78
CAKI-1 = system: CAKI-1
SK-MEL-28 = system: SK-MEL-28
DLD-1 = system: DLD-1
ACHN = system: ACHN
CCRF-CEM = system: CCRF-CEM
HCC 2998 = system: HCC 2998
EKVX = system: EKVX
NCI-H226 = system: NCI-H226
A549 = system: A549
UO-31 = system: UO-31
DMS-273 = system: DMS-273
NCI-H23 = system: NCI-H23
RPMI-8226 = system: RPMI-8226
LXFL 529 = system: LXFL 529
COLO 205 = system: COLO 205
SN12C = system: SN12C
SK-MEL-5 = system: SK-MEL-5
HCT-116 = system: HCT-116
DMS-114 = system: DMS-114
Malme-3M = system: Malme-3M
NCI-H460 = system: NCI-H460
SNB-19 = system: SNB-19
HOP-18 = system: HOP-18
OVCAR-4 = system: OVCAR-4
SK-MEL-2 = system: SK-MEL-2
M19-MEL = system: M19-MEL
RXF 393 = system: RXF 393
SF-539 = system: SF-539
M14 = system: M14
OVCAR-8 = system: OVCAR-8
UACC-62 = system: UACC-62
HCT-15 = system: HCT-15
HOP-92 = system: HOP-92
U-251 = system: U-251
LOX IMVI = system: LOX IMVI
NCI-H522 = system: NCI-H522
K562 = system: K562
OVCAR-3 = system: OVCAR-3
XF498 = system: XF498
SK-OV-3 = system: SK-OV-3
786-0 = system: 786-0
SF-295 = system: SF-295
HOP-62 = system: HOP-62
KM12 = system: KM12
TK-10 = system: TK-10
SF-268 = system: SF-268
SW-620 = system: SW-620
T47D = system: T47D
SR = system: SR
MDA-MB-231 = system: MDA-MB-231
OVCAR-5 = system: OVCAR-5
DU-145 = system: DU-145
SNB-75 = system: SNB-75
PC-3 = system: PC-3
UACC-257 = system: UACC-257
BT-549 = system: BT-549
NCI/ADR-RES = system: NCI/ADR-RES
MDA-MB-435 = system: MDA-MB-435
A498 = system: A498
MDA-N = system: MDA-N
Hs-578T = system: Hs-578T
MCF7 = system: MCF7

COc1ccc2c(c1)Cc1c-2[nH]c2cc3c(cc2c1=O)OCO3
GI50 (IGROV-1): 16.9 µM (inactive)
GI50 (HT-29): 6.44 µM (inactive)
GI50 (HL-60): 6.12 µM (inactive)
GI50 (KM-20L2): 14.7 µM (inactive)
GI50 (MOLT-4): 8.81 µM (inactive)
GI50 (SNB-78): 8.83 µM (inactive)
GI50 (CAKI-1): 32.1 µM (inactive)
GI50 (SK-MEL-28): 15.8 µM (inactive)
GI50 (DLD-1): 13.9 µM (inactive)
GI50 (ACHN): 7.94 µM (inactive)
GI50 (CCRF-CEM): 4.33 µM (inactive)
GI50 (HCC 2998): 11.6 µM (inactive)
GI50 (EKVX): 23.8 µM (inactive)
GI50 (NCI-H226): 29.9 µM (inactive)
GI50 (A549): 7.31 µM (inactive)
GI50 (UO-31): 15.8 µM (inactive)
GI50 (DMS-273): 7.67 µM (inactive)
GI50 (NCI-H23): 16.3 µM (inactive)
GI50 (RPMI-8226): 6.11 µM (inactive)
GI50 (LXFL 529): 19.5 µM (inactive)
GI50 (COLO 205): 12 µM (inactive)
GI50 (SN12C): 30.7 µM (inactive)
GI50 (SK-MEL-5): 6.21 µM (inactive)
GI50 (HCT-116): 6.56 µM (inactive)
GI50 (DMS-114): 4.07 µM (inactive)
GI50 (Malme-3M): 13.7 µM (inactive)
GI50 (NCI-H460): 10.3 µM (inactive)
GI50 (SNB-19): 23 µM (inactive)
GI50 (HOP-18): 17.5 µM (inactive)
GI50 (OVCAR-4): 25.4 µM (inactive)
GI50 (SK-MEL-2): 6.14 µM (inactive)
GI50 (M19-MEL): 15.7 µM (inactive)
GI50 (RXF 393): 4.01 µM (inactive)
GI50 (SF-539): 14.3 µM (inactive)
GI50 (M14): 14.2 µM (inactive)
GI50 (OVCAR-8): 19.1 µM (inactive)
GI50 (UACC-62): 10.4 µM (inactive)
GI50 (HCT-15): 9.91 µM
GI50 (HOP-92): 17.7 µM (inactive)
GI50 (U-251): 9.89 µM (inactive)
GI50 (LOX IMVI): 14.5 µM (inactive)
GI50 (NCI-H522): 10.8 µM (inactive)
GI50 (K562): 7.94 µM (inactive)
GI50 (OVCAR-3): 16.7 µM (inactive)
GI50 (XF498): 15 µM (inactive)
GI50 (SK-OV-3): 22.3 µM (inactive)
GI50 (786-0): 20.2 µM (inactive)
GI50 (SF-295): 16.3 µM (inactive)
GI50 (HOP-62): 17.1 µM (inactive)
GI50 (KM12): 9.48 µM (inactive)
GI50 (TK-10): 9.31 µM (inactive)
GI50 (SF-268): 18.7 µM (inactive)
GI50 (SW-620): 27.5 µM (inactive)

ClCCCN1CCN(CCCl)CC1
GI50 (T47D): 95.5 µM (inactive)
GI50 (IGROV-1): 120 µM (inactive)
GI50 (HT-29): 242 µM (inactive)
GI50 (HL-60): 4.51 µM (inactive)
GI50 (KM-20L2): 269 µM (inactive)
GI50 (MOLT-4): 5.24 µM (inactive)
GI50 (SNB-78): 135 µM (inactive)
GI50 (CAKI-1): 15.2 µM (inactive)
GI50 (SK-MEL-28): 491 µM (inactive)
GI50 (DLD-1): 167 µM (inactive)
GI50 (ACHN): 11.1 µM (inactive)
GI50 (CCRF-CEM): 7.62 µM (inactive)
GI50 (HCC 2998): 346 µM (inactive)
GI50 (EKVX): 352 µM (inactive)
GI50 (NCI-H226): 215 µM (inactive)
GI50 (A549): 110 µM (inactive)
GI50 (UO-31): 109 µM (inactive)
GI50 (DMS-273): 28.9 µM (inactive)
GI50 (SR): 7.98 µM (inactive)
GI50 (NCI-H23): 69.8 µM (inactive)
GI50 (MDA-MB-231): 324 µM (inactive)
GI50 (RPMI-8226): 205 µM (inactive)
GI50 (COLO 205): 161 µM (inactive)
GI50 (SN12C): 34.4 µM (inactive)
GI50 (SK-MEL-5): 239 µM (inactive)
GI50 (HCT-116): 195 µM (inactive)
GI50 (DMS-114): 28.9 µM (inactive)
GI50 (OVCAR-5): 250 µM (inactive)
GI50 (Malme-3M): 142 µM (inactive)
GI50 (NCI-H460): 6.24 µM (inactive)
GI50 (SNB-19): 182 µM (inactive)
GI50 (HOP-18): > 553 µM (inactive)
GI50 (DU-145): 57.3 µM (inactive)
GI50 (OVCAR-4): 186 µM (inactive)
GI50 (SK-MEL-2): 238 µM (inactive)
GI50 (M19-MEL): 226 µM (inactive)
GI50 (RXF 393): 166 µM (inactive)
GI50 (SF-539): 35.6 µM (inactive)
GI50 (SNB-75): 119 µM (inactive)
GI50 (M14): 137 µM (inactive)
GI50 (PC-3): 383 µM (inactive)
GI50 (OVCAR-8): 120 µM (inactive)
GI50 (UACC-62): 10.5 µM (inactive)
GI50 (HCT-15): 189 µM
GI50 (HOP-92): 105 µM (inactive)
GI50 (U-251): 118 µM (inactive)
GI50 (LOX IMVI): 59.8 µM (inactive)
GI50 (NCI-H522): 121 µM (inactive)
GI50 (K562): 212 µM (inactive)
GI50 (OVCAR-3): 167 µM (inactive)
GI50 (XF498): 46.3 µM (inactive)
GI50 (SK-OV-3): 56.2 µM (inactive)
GI50 (786-0): 49.7 µM (inactive)
GI50 (UACC-257): 284 µM (inactive)
GI50 (BT-549): 124 µM (inactive)
GI50 (NCI/ADR-RES): 127 µM (inactive)
GI50 (SF-295): 34.3 µM (inactive)
GI50 (HOP-62): 24.1 µM (inactive)
GI50 (MDA-MB-435): 282 µM (inactive)
GI50 (A498): 261 µM (inactive)
GI50 (KM12): 552 µM (inactive)
GI50 (MDA-N): 191 µM (inactive)
GI50 (TK-10): 357 µM (inactive)
GI50 (Hs-578T): 305 µM (inactive)
GI50 (MCF7): 65.5 µM (inactive)
GI50 (SF-268): 57.3 µM (inactive)
GI50 (SW-620): 252 µM (inactive)
